Measured values as given in US20250074871A1, “PHENETHYLAMINES AND METHODS OF PREPARATION THEREOF” (priority 2022, published 2025).

How the values were obtained:
Assay type in all cases: cell-based
5-HT1B = 5-HT1B (Homo sapiens, UniProt P28222); assay: 5-HT receptor activity panel (Table 3)
5-HT1D = 5-HT1D (Homo sapiens, UniProt P28221); assay: 5-HT receptor activity panel (Table 3)
5-HT6 = 5-HT6 (Homo sapiens, UniProt P50406); assay: 5-HT receptor activity panel (Table 3); details: Table 3
5-HT2B receptor = biological target: T1, 5-HT2B receptor (Homo sapiens, UniProt P41595); assay: 5-HT2B Gq dissociation BRET functional assay
T1 construct: expressed in transfected cells; host or cells: HEK293T

5-HT1F = biological target: T2, 5-HT1F (Homo sapiens, UniProt P30939); assay: 5-HT receptor activity panel (Table 3); details: Table 3
T2 sequence (P30939 1-366): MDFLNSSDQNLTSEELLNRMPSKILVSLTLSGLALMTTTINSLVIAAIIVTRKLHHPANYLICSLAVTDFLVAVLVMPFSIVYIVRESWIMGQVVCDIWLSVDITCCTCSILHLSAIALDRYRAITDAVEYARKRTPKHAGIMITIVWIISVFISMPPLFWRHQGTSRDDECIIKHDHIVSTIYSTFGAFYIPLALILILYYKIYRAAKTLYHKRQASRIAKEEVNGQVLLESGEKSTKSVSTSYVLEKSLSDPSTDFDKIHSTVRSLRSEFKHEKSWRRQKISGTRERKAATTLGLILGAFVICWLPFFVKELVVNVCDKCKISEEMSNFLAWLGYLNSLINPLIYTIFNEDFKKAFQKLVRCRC

5-HT4 = 5-HT4 (Homo sapiens, UniProt Q13639); assay: 5-HT receptor activity panel (Table 3)
5-HT5A = 5-HT5A (Homo sapiens, UniProt P47898); assay: 5-HT receptor activity panel (Table 3)
5-HT7 = 5-HT7 (Homo sapiens, UniProt P34969); assay: 5-HT receptor activity panel (Table 3)
5-HT1E = 5-HT1E (Homo sapiens, UniProt P28566); assay: 5-HT receptor activity panel (Table 3)
5-HT2A receptor = biological target: T3, 5-HT2A receptor (Homo sapiens, UniProt P28223); assay: 5-HT2A Gq dissociation BRET functional assay
T3 construct: expressed in transfected cells; host or cells: HEK293T

5-HT1A = biological target: T4, 5-HT1A (Homo sapiens, UniProt P08908); assay: 5-HT receptor activity panel (Table 3)
T4 sequence (P08908 1-422): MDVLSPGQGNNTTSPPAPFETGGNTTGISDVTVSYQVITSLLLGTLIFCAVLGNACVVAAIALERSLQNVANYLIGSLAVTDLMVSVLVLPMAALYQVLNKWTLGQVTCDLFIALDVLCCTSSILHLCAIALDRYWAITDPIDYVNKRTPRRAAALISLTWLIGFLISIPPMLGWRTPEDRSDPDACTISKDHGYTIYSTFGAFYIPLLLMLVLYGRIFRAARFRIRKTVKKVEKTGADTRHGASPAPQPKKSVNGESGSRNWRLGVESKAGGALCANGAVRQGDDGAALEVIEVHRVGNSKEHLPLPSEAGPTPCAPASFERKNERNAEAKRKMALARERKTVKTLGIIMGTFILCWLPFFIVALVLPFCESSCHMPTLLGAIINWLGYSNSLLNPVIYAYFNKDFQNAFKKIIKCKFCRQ

[1] = Table 2, normalized to % 5-HT stimulation

Sequence of 5-HT7 (P34969 whole entry, species assumed): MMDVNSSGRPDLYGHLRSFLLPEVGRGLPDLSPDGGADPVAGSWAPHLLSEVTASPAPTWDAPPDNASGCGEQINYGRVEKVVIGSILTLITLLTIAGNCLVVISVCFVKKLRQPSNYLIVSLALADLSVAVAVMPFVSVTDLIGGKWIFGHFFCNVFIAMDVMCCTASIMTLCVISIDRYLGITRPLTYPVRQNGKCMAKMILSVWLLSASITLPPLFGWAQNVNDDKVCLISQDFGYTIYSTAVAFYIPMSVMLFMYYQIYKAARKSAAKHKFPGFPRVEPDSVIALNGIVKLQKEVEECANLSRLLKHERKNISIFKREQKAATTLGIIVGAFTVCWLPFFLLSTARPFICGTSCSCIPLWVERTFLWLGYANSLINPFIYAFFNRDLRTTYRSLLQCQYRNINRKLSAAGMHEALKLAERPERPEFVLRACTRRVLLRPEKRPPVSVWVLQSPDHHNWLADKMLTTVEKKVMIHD
T1 sequence (P41595 whole entry): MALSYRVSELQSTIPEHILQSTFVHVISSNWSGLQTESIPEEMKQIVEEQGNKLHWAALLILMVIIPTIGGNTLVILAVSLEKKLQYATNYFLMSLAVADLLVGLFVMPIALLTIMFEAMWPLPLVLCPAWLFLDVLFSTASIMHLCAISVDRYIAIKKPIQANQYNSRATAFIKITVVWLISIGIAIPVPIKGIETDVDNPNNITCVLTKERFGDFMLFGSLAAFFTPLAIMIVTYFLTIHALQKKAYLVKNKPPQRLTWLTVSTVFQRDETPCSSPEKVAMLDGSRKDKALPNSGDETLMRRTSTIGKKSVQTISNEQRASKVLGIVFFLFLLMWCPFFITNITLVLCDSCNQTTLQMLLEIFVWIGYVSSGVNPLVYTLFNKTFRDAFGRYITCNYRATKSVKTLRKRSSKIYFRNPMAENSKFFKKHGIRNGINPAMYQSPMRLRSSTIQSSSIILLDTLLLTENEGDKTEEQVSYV
Sequence of 5-HT4 (Q13639 whole entry, species assumed): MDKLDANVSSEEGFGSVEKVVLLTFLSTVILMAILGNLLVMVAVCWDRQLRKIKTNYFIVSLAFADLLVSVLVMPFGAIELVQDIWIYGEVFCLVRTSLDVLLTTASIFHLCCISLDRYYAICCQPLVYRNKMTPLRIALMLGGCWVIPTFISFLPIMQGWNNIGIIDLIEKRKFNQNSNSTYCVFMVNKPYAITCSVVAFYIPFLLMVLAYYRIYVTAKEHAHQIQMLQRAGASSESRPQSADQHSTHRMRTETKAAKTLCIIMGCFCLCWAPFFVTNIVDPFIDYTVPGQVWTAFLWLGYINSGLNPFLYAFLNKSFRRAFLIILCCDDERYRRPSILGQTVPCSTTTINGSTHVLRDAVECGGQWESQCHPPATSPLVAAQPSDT
Sequence of 5-HT1E (P28566 whole entry, species assumed): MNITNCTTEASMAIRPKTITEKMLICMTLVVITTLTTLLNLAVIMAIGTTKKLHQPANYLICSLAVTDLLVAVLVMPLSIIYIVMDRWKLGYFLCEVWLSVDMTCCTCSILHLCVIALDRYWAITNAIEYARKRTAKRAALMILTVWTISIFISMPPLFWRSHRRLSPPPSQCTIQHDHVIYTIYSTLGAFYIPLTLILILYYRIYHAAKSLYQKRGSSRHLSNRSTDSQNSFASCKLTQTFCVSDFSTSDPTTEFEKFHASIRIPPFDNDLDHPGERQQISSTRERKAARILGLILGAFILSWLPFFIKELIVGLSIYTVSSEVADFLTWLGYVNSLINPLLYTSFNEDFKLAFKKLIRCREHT
Sequence of 5-HT5A (P47898 whole entry, species assumed): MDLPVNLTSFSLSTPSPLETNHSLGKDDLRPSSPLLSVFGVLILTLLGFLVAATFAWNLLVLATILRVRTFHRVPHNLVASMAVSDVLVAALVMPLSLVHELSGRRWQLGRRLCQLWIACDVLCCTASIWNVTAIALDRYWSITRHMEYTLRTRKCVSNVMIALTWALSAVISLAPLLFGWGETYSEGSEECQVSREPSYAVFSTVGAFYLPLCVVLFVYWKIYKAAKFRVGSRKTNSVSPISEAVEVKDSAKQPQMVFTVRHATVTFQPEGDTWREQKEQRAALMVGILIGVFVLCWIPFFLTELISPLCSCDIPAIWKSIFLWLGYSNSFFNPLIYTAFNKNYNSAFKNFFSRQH
T3 sequence (P28223 whole entry): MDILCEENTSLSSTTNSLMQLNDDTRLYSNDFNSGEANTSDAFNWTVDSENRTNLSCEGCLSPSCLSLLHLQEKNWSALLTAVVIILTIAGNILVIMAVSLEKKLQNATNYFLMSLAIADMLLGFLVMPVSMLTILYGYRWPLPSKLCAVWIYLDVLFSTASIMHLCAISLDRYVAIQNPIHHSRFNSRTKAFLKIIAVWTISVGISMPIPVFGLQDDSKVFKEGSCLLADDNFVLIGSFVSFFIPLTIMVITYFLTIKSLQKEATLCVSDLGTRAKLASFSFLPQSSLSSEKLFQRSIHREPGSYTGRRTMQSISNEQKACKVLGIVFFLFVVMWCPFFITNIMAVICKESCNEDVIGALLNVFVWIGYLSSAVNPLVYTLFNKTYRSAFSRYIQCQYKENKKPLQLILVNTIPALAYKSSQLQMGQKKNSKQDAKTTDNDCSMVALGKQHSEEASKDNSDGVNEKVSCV
Sequence of 5-HT1D (P28221 whole entry, species assumed): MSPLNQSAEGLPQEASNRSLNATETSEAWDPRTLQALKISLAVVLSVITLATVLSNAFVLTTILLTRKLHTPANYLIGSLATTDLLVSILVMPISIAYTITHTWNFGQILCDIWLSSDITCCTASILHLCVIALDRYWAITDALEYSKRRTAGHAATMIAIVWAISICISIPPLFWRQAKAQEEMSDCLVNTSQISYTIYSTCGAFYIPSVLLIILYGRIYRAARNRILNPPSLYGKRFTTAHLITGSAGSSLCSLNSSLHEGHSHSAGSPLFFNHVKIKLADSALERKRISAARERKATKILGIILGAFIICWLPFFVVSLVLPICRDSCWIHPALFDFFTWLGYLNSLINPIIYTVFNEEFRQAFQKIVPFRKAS
Sequence of 5-HT1B (P28222 whole entry, species assumed): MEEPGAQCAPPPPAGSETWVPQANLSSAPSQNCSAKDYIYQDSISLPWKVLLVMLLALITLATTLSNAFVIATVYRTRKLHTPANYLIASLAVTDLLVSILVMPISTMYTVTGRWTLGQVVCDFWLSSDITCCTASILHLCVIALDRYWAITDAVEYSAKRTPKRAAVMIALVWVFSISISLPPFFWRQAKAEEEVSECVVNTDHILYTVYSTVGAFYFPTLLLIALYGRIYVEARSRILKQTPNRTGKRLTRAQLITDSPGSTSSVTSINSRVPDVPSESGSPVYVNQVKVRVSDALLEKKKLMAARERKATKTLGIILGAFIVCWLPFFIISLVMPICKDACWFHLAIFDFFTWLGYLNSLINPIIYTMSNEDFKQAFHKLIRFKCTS
Sequence of 5-HT6 (P50406 whole entry, species assumed): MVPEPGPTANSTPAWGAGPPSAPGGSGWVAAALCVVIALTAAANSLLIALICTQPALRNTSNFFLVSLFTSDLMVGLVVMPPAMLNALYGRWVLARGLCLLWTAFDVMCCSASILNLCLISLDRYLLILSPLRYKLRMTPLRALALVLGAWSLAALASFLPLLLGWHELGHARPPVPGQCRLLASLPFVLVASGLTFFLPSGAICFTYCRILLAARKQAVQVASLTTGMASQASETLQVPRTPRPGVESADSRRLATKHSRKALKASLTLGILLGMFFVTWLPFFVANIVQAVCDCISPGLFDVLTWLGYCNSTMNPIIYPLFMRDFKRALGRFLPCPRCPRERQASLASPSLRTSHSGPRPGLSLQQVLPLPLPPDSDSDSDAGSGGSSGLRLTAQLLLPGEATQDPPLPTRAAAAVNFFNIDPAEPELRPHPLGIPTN

`CN(C)CCc1c[nH]c2cccc(O)c12` [psilocin, reference compound] was tested, and the EC50 (5-HT1B) was 14.3 nM, the “5-HT1B Eff, %” value (5-HT1B; Table 3) was 94% and the EC50 (5-HT1D) was 2.2 nM. The “5-HT1D Eff, %” value (5-HT1D; Table 3) was 102%, the “5-HT6 Eff, %” value (5-HT6) was 74% and the EC50 (5-HT6; read-out: 5-HT6 EC50) was 182 nM. For the same compound, the “5-HT2B BRET Eff %” value (5-HT2B receptor; [1]) was 63%, the “5-HT2B Eff, %” value (5-HT2B receptor; Table 3 panel) was 32% and the “5-HT1F Eff, %” value (5-HT1F) was 93%. The EC50 (5-HT4) was 563 nM, the “5-HT4 Eff, %” value (5-HT4; Table 3) was 81% and the EC50 (5-HT5A) was 349 nM. The “5-HT5A Eff, %” value (5-HT5A; Table 3) was 48%, the EC50 (5-HT7) was 525 nM and the “5-HT7 Eff, %” value (5-HT7; Table 3) was 86%. The EC50 (5-HT1E) was 10.4 nM, the “5-HT1E Eff, %” value (5-HT1E; Table 3) was 90% and the “5-HT2A BRET Eff %” value (5-HT2A receptor; [1]) was 82%. For the same compound, the “5-HT2A Eff, %” value (5-HT2A receptor; Table 3 panel) was 80%, the EC50 (5-HT1A) was 46.9 nM and the “5-HT1A Eff, %” value (5-HT1A; Table 3) was 93%.
